{"source": "patent US9199943B2", "about": "“2-(poly-substituted aryl)-6-amino-5-halo-4-pyrimidinecarboxylic acids and their use as herbicides” (Dow AgroSciences, LLC., priority 2006, dated 2015)", "assay_type_in_all_cases": "in vivo", "key": {"GALAP = Galium aparine": {"tested_on": "GALAP = Galium aparine", "assay": "Postemergence herbicidal activity in cereal crops, Galium aparine", "settings": "post-emergence, 480 h, post-emergent, after 20-22 days; for pest or weed control at 35 g/ha: 35 g ai/ha; for pest or weed control at 17.5 g/ha: 17.5 g ai/ha; for pest or weed control at 70 g/ha: 70 g ai/ha", "method": "(§1) Seeds of the desired test plant species were planted in Sun Gro MetroMix® 306 planting mixture, which typically has a pH of 6.0 to 6.8 and an organic matter content of about 30 percent, in plastic pots with a surface area of 103.2 square centimeters. When required to ensure good germination and healthy plants, a fungicide treatment and/or other chemical or physical treatment was applied. The plants were grown for 7-36 days in a greenhouse with an approximate 14 hour photoperiod which was maintained at about 18° C. during the day and 17° C. during the night. Nutrients and water were added on a regular basis and supplemental lighting was provided with overhead metal halide 1000-Watt lamps as necessary. The plants were employed for testing when they reached the second or third true leaf stage.\n(§2) A weighed amount, determined by the highest rate to be tested, of each test compound was placed in a 25 mL glass vial and was dissolved in 8 mL of a 97:3 v/v mixture of acetone and DMSO to obtain concentrated stock solutions. […] The concentrated stock solutions obtained were diluted with 16 mL of an aqueous mixture containing acetone, water, isopropyl alcohol, DMSO, Agri-dex crop oil concentrate, and Triton X-77 surfactant in a 64.7:26.0:6.7:2.0:0.7:0.01 v/v ratio to obtain spray solutions containing the highest application rates. Additional application rates were obtained by serial dilution of 12 mL of the high rate solution into a solution containing 4 mL of 97:3 v/v mixture of acetone and DMSO and 8 mL of an aqueous mixture containing acetone, water, isopropyl alcohol, DMSO, Agri-dex crop oil concentrate, and Triton X-77 surfactant in a 48.5:39.0:10.0:1.5:1.0:0.02 v/v ratio to obtain ½×, ¼×, ⅛× and 1/16× rates of the high rate. Compound requirements are based upon a 12 mL application volume at a rate of 187 L/ha. Formulated compounds were applied to the plant material with an overhead Mandel track sprayer equipped with a 8002E nozzles calibrated to deliver 187 L/ha over an application area of 0.503 square meters at a spray height of 18 inches (43 cm) above average plant canopy height. Control plants were sprayed in the same manner with the blank.\n(§3) The treated plants and control plants were placed in a greenhouse as described above and watered by sub-irrigation to prevent wash-off of the test compounds. After 20-22 days, the condition of the test plants as compared with that of the untreated plants was determined visually and scored on a scale of 0 to 100 percent where 0 corresponds to no injury and 100 corresponds to complete kill."}, "[1]": {"tested_on": "ABUTH = velvetleaf (Abutilon theophrasti)", "assay": "General postemergence herbicidal activity, velvetleaf", "settings": "Abutilon theophrasti, post-emergence, 336 h; post-emergent, 140 g ai/ha, visual score after 14 days (0 no injury, 100 complete kill)", "method": "(§4) Seeds or nutlets of the desired test plant species were planted in Sun Gro MetroMix® 306 planting mixture, which typically has a pH of 6.0 to 6.8 and an organic matter content of about 30 percent, in plastic pots with a surface area of 64 square centimeters. When required to ensure good germination and healthy plants, a fungicide treatment and/or other chemical or physical treatment was applied. The plants were grown for 7-21 days in a greenhouse with an approximate 15 hour photoperiod which was maintained at about 23-29° C. during the day and 22-28° C. during the night. Nutrients and water were added on a regular basis and supplemental lighting was provided with overhead metal halide 1000-Watt lamps as necessary. The plants were employed for testing when they reached the first or second true leaf stage.\n(§5) A weighed amount, determined by the highest rate to be tested, of each test compound was placed in a 25 mL glass vial and was dissolved in 4 mL of a 97:3 v/v (volume/volume) mixture of acetone and dimethyl sulfoxide (DMSO) to obtain concentrated stock solutions. […] The concentrated stock solutions obtained were diluted with 20 mL of an aqueous mixture containing acetone, water, isopropyl alcohol, DMSO, Atplus 411F crop oil concentrate, and Triton X-155 surfactant in a 48.5:39:10:1.5:1.0:0.02 v/v ratio to obtain spray solutions containing the highest application rates. Additional application rates were obtained by serial dilution of 12 mL of the high rate solution into a solution containing 2 mL of 97:3 v/v (volume/volume) mixture of acetone and dimethyl sulfoxide (DMSO) and 10 mL of an aqueous mixture containing acetone, water, isopropyl alcohol, DMSO, Atplus 411F crop oil concentrate, and Triton X-155 surfactant in a 48.5:39:10:1.5:1.0:0.02 v/v ratio to obtain ½×, ¼×, ⅛× and 1/16× rates of the high rate. Compound requirements are based upon a 12 mL application volume at a rate of 187 L/ha. Formulated compounds were applied to the plant material with an overhead Mandel track sprayer equipped with a 8002E nozzles calibrated to deliver 187 L/ha over an application area of 0.503 square meters at a spray height of 18 inches (43 cm) above the average plant canopy height. Control plants were sprayed in the same manner with the solvent blank.\nas §3, with “14” for “20-22”\n(§6) By applying the well-accepted probit analysis as described by J. Berkson in Journal of the […], 48, 565 (1953) and by D. Finney in “Probit Analysis” Cambridge University Press (1952), the above data can be used to calculate GR50 and GR80 values, which are defined as growth reduction factors that correspond to the effective dose of herbicide required to kill or control 50 percent or 80 percent, respectively, of a target plant."}, "LAMPU = Lamium purpureum": {"tested_on": "LAMPU = Lamium purpureum", "assay": "Postemergence herbicidal activity in cereal crops, Lamium purpureum", "settings": "post-emergence, 480 h, post-emergent, after 20-22 days; for pest or weed control at 35 g/ha: 35 g ai/ha; for pest or weed control at 17.5 g/ha: 17.5 g ai/ha; for pest or weed control at 70 g/ha: 70 g ai/ha", "method": "as §1, §2, §3"}, "[2]": {"tested_on": "CHEAL = lambsquarter (Chenopodium album)", "assay": "General postemergence herbicidal activity, lambsquarter", "settings": "Chenopodium album, post-emergence, 336 h; post-emergent, 140 g ai/ha, visual score after 14 days (0 no injury, 100 complete kill)", "method": "as §4, §5\nas §3, with “14” for “20-22”\nas §6"}, "[3]": {"tested_on": "TRZAS = wheat (Triticum aestivum)", "assay": "Postemergence herbicidal activity in cereal crops, wheat", "settings": "post-emergence, 480 h, post-emergent, wheat (crop), after 20-22 days; for pest or weed control at 35 g/ha: 35 g ai/ha; for pest or weed control at 17.5 g/ha: 17.5 g ai/ha; for pest or weed control at 70 g/ha: 70 g ai/ha", "method": "as §1, §2, §3"}}, "data": [{"smiles": "CCOc1c(Cl)ccc(-c2nc(N)c(Cl)c(C(=O)OC)n2)c1F", "note": "[Compound 1, 6-amino-5-chloro-2-(4-chloro-3-ethoxy-2-fluorophenyl)-pyrimidine-4-carboxylic acid methyl ester]", "values": [{"measurement": "pest or weed control at 35 g/ha", "setting": "GALAP = Galium aparine", "value": 99, "unit": "%"}, {"measurement": "pest or weed control at 140 g/ha", "setting": "[1]", "value": 100, "unit": "%"}, {"measurement": "pest or weed control at 35 g/ha", "setting": "LAMPU = Lamium purpureum", "value": 85, "unit": "%"}, {"measurement": "pest or weed control at 140 g/ha", "setting": "[2]", "value": 100, "unit": "%"}, {"measurement": "pest or weed control at 35 g/ha", "setting": "[3]", "value": 0, "unit": "%"}]}, {"smiles": "COC(=O)c1nc(-c2c(F)cc(Cl)c(OC)c2F)nc(N)c1Cl", "note": "[Compound 2, 6-amino-5-chloro-2-(4-chloro-2,6-difluoro-3-methoxy-phenyl)pyrimidine-4-carboxylic acid methyl ester]", "values": [{"measurement": "pest or weed control at 35 g/ha", "setting": "GALAP = Galium aparine", "value": 95, "unit": "%"}, {"measurement": "pest or weed control at 140 g/ha", "setting": "[1]", "value": 90, "unit": "%"}, {"measurement": "pest or weed control at 35 g/ha", "setting": "LAMPU = Lamium purpureum", "value": 95, "unit": "%"}, {"measurement": "pest or weed control at 140 g/ha", "setting": "[2]", "value": 100, "unit": "%"}, {"measurement": "pest or weed control at 35 g/ha", "setting": "[3]", "value": 0, "unit": "%"}]}, {"smiles": "COC(=O)c1nc(-c2ccc(Cl)c(OC)c2F)nc(N)c1Cl", "note": "[Compound 3, 6-amino-5-chloro-2-(4-chloro-2-fluoro-3-methoxyphenyl)-pyrimidine-4-carboxylic acid methyl ester]", "values": [{"measurement": "pest or weed control at 17.5 g/ha", "setting": "GALAP = Galium aparine", "value": 95, "unit": "%"}, {"measurement": "pest or weed control at 140 g/ha", "setting": "[1]", "value": 100, "unit": "%"}, {"measurement": "pest or weed control at 17.5 g/ha", "setting": "LAMPU = Lamium purpureum", "value": 99, "unit": "%"}, {"measurement": "pest or weed control at 140 g/ha", "setting": "[2]", "value": 100, "unit": "%"}, {"measurement": "pest or weed control at 17.5 g/ha", "setting": "[3]", "value": 0, "unit": "%"}]}, {"smiles": "COC(=O)c1nc(-c2ccc(Cl)c(OC)c2Cl)nc(N)c1Cl", "note": "[Compound 6, 6-Amino-5-chloro-2-(2,4-dichloro-3-methoxyphenyl)pyrimidine-4-carboxylic acid methyl ester]", "values": [{"measurement": "pest or weed control at 70 g/ha", "setting": "GALAP = Galium aparine", "value": 85, "unit": "%"}, {"measurement": "pest or weed control at 140 g/ha", "setting": "[1]", "value": 95, "unit": "%"}, {"measurement": "pest or weed control at 70 g/ha", "setting": "LAMPU = Lamium purpureum", "value": 99, "unit": "%"}, {"measurement": "pest or weed control at 140 g/ha", "setting": "[2]", "value": 100, "unit": "%"}, {"measurement": "pest or weed control at 70 g/ha", "setting": "[3]", "value": 10, "unit": "%"}]}, {"smiles": "COC(=O)c1nc(-c2ccc(Cl)c(C(F)F)c2F)nc(N)c1Cl", "note": "[Compound 7, 6-Amino-5-chloro-2-(4-chloro-3-difluoromethyl-2-fluorophenyl)pyrimidine-4-carboxylic acid methyl ester]", "values": [{"measurement": "pest or weed control at 17.5 g/ha", "setting": "GALAP = Galium aparine", "value": 60, "unit": "%"}, {"measurement": "pest or weed control at 140 g/ha", "setting": "[1]", "value": 80, "unit": "%"}, {"measurement": "pest or weed control at 17.5 g/ha", "setting": "LAMPU = Lamium purpureum", "value": 90, "unit": "%"}, {"measurement": "pest or weed control at 140 g/ha", "setting": "[2]", "value": 100, "unit": "%"}, {"measurement": "pest or weed control at 17.5 g/ha", "setting": "[3]", "value": 15, "unit": "%"}]}, {"smiles": "COC(=O)c1nc(-c2ccc(Cl)c(N(C)C)c2F)nc(N)c1Cl", "note": "[Compound 8, 6-Amino-5-chloro-2-(4-chloro-3-dimethylamino-2-fluorophenyl)pyrimidine-4-carboxylic acid methyl ester]", "values": [{"measurement": "pest or weed control at 35 g/ha", "setting": "GALAP = Galium aparine", "value": 70, "unit": "%"}, {"measurement": "pest or weed control at 140 g/ha", "setting": "[1]", "value": 100, "unit": "%"}, {"measurement": "pest or weed control at 35 g/ha", "setting": "LAMPU = Lamium purpureum", "value": 85, "unit": "%"}, {"measurement": "pest or weed control at 140 g/ha", "setting": "[2]", "value": 100, "unit": "%"}, {"measurement": "pest or weed control at 35 g/ha", "setting": "[3]", "value": 15, "unit": "%"}]}, {"smiles": "COC(=O)c1nc(-c2ccc3c(c2F)OCO3)nc(N)c1Cl", "note": "[Compound 9, 6-Amino-5-chloro-2-(4-fluorobenzo[1,3]dioxol-5-yl)pyrimidine-4-carboxylic acid methyl ester]", "values": [{"measurement": "pest or weed control at 70 g/ha", "setting": "GALAP = Galium aparine", "value": 90, "unit": "%"}, {"measurement": "pest or weed control at 140 g/ha", "setting": "[1]", "value": 95, "unit": "%"}, {"measurement": "pest or weed control at 70 g/ha", "setting": "LAMPU = Lamium purpureum", "value": 100, "unit": "%"}, {"measurement": "pest or weed control at 140 g/ha", "setting": "[2]", "value": 90, "unit": "%"}, {"measurement": "pest or weed control at 70 g/ha", "setting": "[3]", "value": 15, "unit": "%"}]}, {"smiles": "COC(=O)c1nc(-c2ccc(Cl)c(OCC(F)F)c2F)nc(N)c1Cl", "note": "[Compound 10, 6-Amino-5-chloro-2-[4-chloro-3-(2,2-difluoroethoxy)-2-fluorophenyl]-pyrimidine-4-carboxylic acid methyl ester]", "values": [{"measurement": "pest or weed control at 70 g/ha", "setting": "GALAP = Galium aparine", "value": 65, "unit": "%"}, {"measurement": "pest or weed control at 140 g/ha", "setting": "[1]", "value": 75, "unit": "%"}, {"measurement": "pest or weed control at 70 g/ha", "setting": "LAMPU = Lamium purpureum", "value": 85, "unit": "%"}, {"measurement": "pest or weed control at 140 g/ha", "setting": "[2]", "value": 85, "unit": "%"}, {"measurement": "pest or weed control at 70 g/ha", "setting": "[3]", "value": 5, "unit": "%"}]}, {"smiles": "COC(=O)c1nc(-c2ccc(Cl)c(OC)c2F)nc(N)c1Br", "note": "[Compound 13, 6-amino-5-bromo-2-(4-chloro-2-fluoro-3-methoxyphenyl)-pyrimidine-4-carboxylic acid methyl ester]", "values": [{"measurement": "pest or weed control at 17.5 g/ha", "setting": "GALAP = Galium aparine", "value": 90, "unit": "%"}, {"measurement": "pest or weed control at 140 g/ha", "setting": "[1]", "value": 100, "unit": "%"}, {"measurement": "pest or weed control at 17.5 g/ha", "setting": "LAMPU = Lamium purpureum", "value": 95, "unit": "%"}, {"measurement": "pest or weed control at 140 g/ha", "setting": "[2]", "value": 100, "unit": "%"}, {"measurement": "pest or weed control at 17.5 g/ha", "setting": "[3]", "value": 0, "unit": "%"}]}]}
